Test results as given in ChEMBL document CHEMBL5143509, “An efficient strategy for digging protein-protein interactions for rational drug design - A case study with HIF-1α/VHL” (Eur J Med Chem, 2022).
The source made the active and inactive calls. No cut-off for these calls is given here.

Key:
[1] = Binding affinity to VBC (unknown origin) using FAM-DEALA-Hyp-YIPD as substrate by fluorescence polarization assay; parameters: species or system Homo sapiens
[2] = system: U2OS; assay: Cytotoxicity against human U2OS cells assessed as effect on cell viability at 100 uM measured after 24 hrs by MTT assay; format: toxicity, cell-based
[3] = system: HeLa; assay: Cytotoxicity against human HeLa cells assessed as effect on cell viability at 100 uM measured after 24 hrs by crystal violet staining based assay; format: toxicity
[4] = Octanol/water partition coefficient, logD of the compound at pH 7.4; format: physicochemical
[5] = Octanol-water partition coefficient, logP of the compound; format: physicochemical
[6] = molecular target: Hypoxia-inducible factor 1-alpha (Homo sapiens) (UniProt Q16665); assay: Stabilization of HIF-1 alpha in human HeLa cells at 100 uM incubated for 24 hrs by Western blot analysis; format: cell-based
[7] = system: HeLa; assay: Stabilization of HIF-1 alpha OH in human HeLa cells at 100 uM incubated for 24 hrs by Western blot analysis; format: cell-based
[8] = system: 786-0; assay: Cytotoxicity against human 786-0 cells assessed as effect on cell viability at 100 uM measured after 24 hrs by MTT assay; format: toxicity, cell-based; settings: 786-0, 24 h
[9] = system: U2OS; assay: Upregulation of HIF-1 alpha in human U2OS cells at 100 uM incubated for 24 hrs by Western blot analysis; format: functional, cell-based
[10] = system: HeLa; assay: Upregulation of HIF-1 alpha in human HeLa cells at 100 uM incubated for 24 hrs by Western blot analysis; format: functional, cell-based

Sequence of Hypoxia-inducible factor 1-alpha (Homo sapiens) (Q16665 whole entry, looked up): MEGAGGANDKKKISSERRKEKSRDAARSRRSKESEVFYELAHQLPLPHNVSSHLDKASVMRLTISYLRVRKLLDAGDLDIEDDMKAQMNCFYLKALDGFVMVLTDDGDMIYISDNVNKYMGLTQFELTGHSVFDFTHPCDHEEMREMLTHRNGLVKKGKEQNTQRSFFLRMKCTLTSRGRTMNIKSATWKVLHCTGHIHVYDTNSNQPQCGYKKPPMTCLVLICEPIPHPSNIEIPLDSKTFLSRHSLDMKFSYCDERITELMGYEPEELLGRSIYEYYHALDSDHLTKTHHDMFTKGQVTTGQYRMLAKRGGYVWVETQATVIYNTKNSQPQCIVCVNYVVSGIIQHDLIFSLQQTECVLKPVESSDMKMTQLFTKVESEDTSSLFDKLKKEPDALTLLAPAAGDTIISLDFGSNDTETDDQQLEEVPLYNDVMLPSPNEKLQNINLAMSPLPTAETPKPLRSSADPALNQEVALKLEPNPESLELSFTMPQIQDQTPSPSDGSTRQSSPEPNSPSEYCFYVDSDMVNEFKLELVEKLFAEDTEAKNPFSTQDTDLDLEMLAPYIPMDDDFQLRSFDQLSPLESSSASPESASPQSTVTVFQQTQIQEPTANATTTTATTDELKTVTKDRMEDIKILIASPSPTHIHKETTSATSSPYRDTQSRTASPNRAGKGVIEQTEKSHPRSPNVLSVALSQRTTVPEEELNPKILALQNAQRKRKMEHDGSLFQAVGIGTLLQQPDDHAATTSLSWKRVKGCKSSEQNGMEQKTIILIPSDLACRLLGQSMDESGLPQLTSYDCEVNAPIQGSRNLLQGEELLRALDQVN

Row | SMILES | IC50 [1] | Activity [2] | Activity [3] | logD [4] | logP [5] | Activity [6] | Activity [7] | Activity [8] | logD ([4]; read-out: logD) | logP ([5]; read-out: logP) | Activity [9] | Activity [10]
1 | CC(=O)N[C@H](C(=O)N1C[C@H](O)C[C@H]1C(=O)N[C@@H](CCc1ccncc1)c1ccc(-c2scnc2C)cc1)C(C)(C)C | 223 nM | Non-Toxic | Non-Toxic | 2.7 | 2.18 | 0.99 fold | 2.25 fold | Non-Toxic |  |  |  | 
2 | CC(=O)N[C@H](C(=O)N1C[C@H](O)C[C@H]1C(=O)N[C@@H](CCc1ccc(O)cc1)c1ccc(-c2scnc2C)cc1)C(C)(C)C | 193 nM |  | Non-Toxic |  |  | 1.79 fold | 0.75 fold | Non-Toxic | 3.08 | 3.08 | Active | 
3 | CC(=O)N[C@H](C(=O)N1C[C@H](O)C[C@H]1C(=O)N[C@@H](CCC(=O)O)c1ccc(-c2scnc2C)cc1)C(C)(C)C | 63 nM | Non-Toxic | Non-Toxic |  |  | 1.91 fold | 0.99 fold | Non-Toxic | -0.44 | 1.02 | Active | 
4 | O=C(O)CNC(=O)c1c(O)c2ccccc2n(Cc2ccccc2)c1=O |  |  |  |  |  |  |  |  |  |  | Active | Active
5 | CC(=O)N[C@H](C(=O)N1C[C@H](O)C[C@H]1C(=O)N[C@@H](CCc1ccc(Br)cc1)c1ccc(-c2scnc2C)cc1)C(C)(C)C | 189 nM |  | Non-Toxic |  |  | 1.88 fold | 0.91 fold | Non-Toxic | 4.08 | 4.08 | Active | 
6 | CC(=O)N[C@H](C(=O)N1C[C@H](O)C[C@H]1C(=O)N[C@@H](CCC(C)(C)C)c1ccc(-c2scnc2C)cc1)C(C)(C)C | 166 nM |  | Non-Toxic |  |  | 2.22 fold | 1.21 fold | Non-Toxic | 3.21 | 3.21 |  | 
7 | CC(=O)N[C@H](C(=O)N1C[C@H](O)C[C@H]1C(=O)NCc1ccc(-c2scnc2C)cc1)C(C)(C)C | 204 nM |  | Non-Toxic |  |  | 1 fold | 1 fold |  | 0.94 | 0.94 |  | 
8 | CC(=O)N[C@H](C(=O)N1C[C@H](O)C[C@H]1C(=O)N[C@@H](c1ccccc1)c1ccc(-c2scnc2C)cc1)C(C)(C)C | 230 nM |  | Non-Toxic |  |  | 2.21 fold | 1.01 fold | Non-Toxic | 2.55 | 2.55 |  | 
9 | CCOC(=O)CC[C@H](NC(=O)[C@@H]1C[C@@H](O)CN1C(=O)[C@@H](NC(C)=O)C(C)(C)C)c1ccc(-c2scnc2C)cc1 | 81 nM | Non-Toxic | Non-Toxic |  |  | 1.64 fold | 1.31 fold | Non-Toxic | 1.59 | 1.59 | Active | 
10 | CCCC[C@H](NC(=O)[C@@H]1C[C@@H](O)CN1C(=O)[C@@H](NC(C)=O)C(C)(C)C)c1ccc(-c2scnc2C)cc1 | 350 nM | Non-Toxic | Non-Toxic |  |  | 1.4 fold | 1.4 fold | Non-Toxic | 2.75 | 2.75 |  | 
